Laboratory results as given in EPA's ToxValDB 9.5.
Where “and” joins values, the source holds several entries; their conditions need not be identical. Equal entries are not always repeated.

What was measured:
Mus musculus = conditions: oral
Rattus norvegicus = conditions: oral
[1] = developmental, duration: 17 days, F, B6C3F1, Developmental: 42.5% reduced NK cell activity in male pups at 8 weeks of age
[2] = reproduction developmental, duration: 17 days, F, CD1, Endocrine: Decreased total T4 on GD 6
[3] = short-term, duration: 21 days, M, CD1, Body Weight: ~15% reduced body weight + Reproductive: ~17% reduced serum testosterone, ~38% reduced epididymal sperm count
[4] = short-term, duration: 28 days, M, B6C3F1, Immunotoxicological: Suppressed response to sRBC (~60%)
[5] = subchronic, duration: 60 days, M, Immunotoxicological: Impaired response to sRBC
[6] = chronic, duration: 14 weeks, M, Sprague-Dawley, Hematological: 45% increase in non-segmented neutrophils
[7] = chronic, duration: 104 weeks, F, Sprague-Dawley, Body Weight: 14% reduction in final body weight
[8] = chronic, duration: 104 weeks, M, Sprague-Dawley, Hepatic: Hepatocellular hypertrophy at ?0.1 mg/kg/day / single cell necrosis and cystic degeneration at […]
[9] = developmental, duration: 20 days, Sprague-Dawley, Developmental: Reduced serum T4 in pups at 1 mg/kg/day / approximately 60% survival at weaning versus 80% in controls at 2 mg/kg/day
[10] = developmental, duration: 21 days, F, Sprague-Dawley, Developmental: ~30% increased locomotor activity and concurrent failure to habituate to test environment in male pups on PND 17
[11] = reproduction developmental, duration: 19 days, F, Sprague-Dawley, Body Weight: Decreased mean body weight gain, 10% at 2 mg/kg/day and 33% at 5 mg/kg/day
[12] = reproduction developmental, duration: 67 days, F, Sprague-Dawley, Body Weight: 22% reduction in body weight gain during premating / food consumption reduced […]
[13] = reproduction developmental, duration: 84 days, M/F, Sprague-Dawley, Body Weight: >10% reduction in body weight
[14] = short-term, duration: 28 days, F, Sprague-Dawley, Hematological: Decreased red blood cells (8.9%), hemoglobin (10%), hematocrit (8.8%)
[15] = short-term, duration: 28 days, M/F, Sprague-Dawley, Endocrine: Decreased T4 level (82% in males / 48% in females)

O=S(=O)([O-])C(F)(F)C(F)(F)C(F)(F)C(F)(F)C(F)(F)C(F)(F)C(F)(F)C(F)(F)F.[K+] [Potassium perfluorooctanesulfonate]
LOAEL (Mus musculus; developmental, duration: 4 weeks, M, CD1, Developmental: Impaired retention of the task in the water maze test): 3 mg/kg-day | LOAEL (Mus musculus; developmental, duration: 1 days, M, CD1, Developmental: 24% decreased total spontaneous activity at 2 months of age / no significant alteration at 4 months): 0.75 mg/kg-day | LOAEL (Mus musculus; developmental, duration: 4 days, F, Developmental: 31% reduced percentage of live pups per litter on PND 15): 4.5 mg/kg-day | LOAEL (Mus musculus; developmental, duration: 5 days, F, ICR, Developmental: 6.1% increased cleft palate and 12.7% reduced body weight in fetuses): 50 mg/kg-day | NOAEL (Mus musculus; developmental, duration: 7 days, F, CD1): 6 mg/kg-day | LOAEL (Mus musculus; developmental, duration: 7 days, F, CD1, Developmental: Decreased distance traveled in open field test at 3 months of age): 6 mg/kg-day | LOAEL (Mus musculus; developmental, duration: 7 days, F, CD1, Developmental: Reduced body weight of pups on PNDs 4 and 8): 6 mg/kg-day | LOAEL (Mus musculus; [1]): 1 mg/kg-day | NOAEL (Mus musculus; [1]): 0.1 mg/kg-day | NOAEL (Mus musculus; developmental, duration: 17 days, F, CD1, Developmental: Increased incidences of sternal defects at ?5 mg/kg/day / reduced percentage of live fetuses (9%) at 20 mg/kg/day): 1 mg/kg-day | NOAEL (Mus musculus; developmental, duration: 17 days, F, CD1, Developmental: Peroxisome proliferation in fetal liver at ?5 mg/kg/day): 5 mg/kg-day | LOAEL (Mus musculus; developmental, duration: 17 days, F, ICR, Body Weight: 35% reduced maternal body weight + Developmental: 89% increased cleft palate, 25% reduced body weight in fetuses): 20 mg/kg-day | LOAEL (Mus musculus; developmental, duration: 18 days, F, ICR, Developmental: GDs 0-18: decreased survival (55.2%) at 10 mg/kg/day on PND 4, decreased neonatal BW, intracranial blood vessel dilatation, …): 10 mg/kg-day | NOAEL (Mus musculus; developmental, duration: 18 days, F, ICR, Hepatic: 60% increased absolute liver weight at ?10 mg/kg/day): 20 mg/kg-day | LOAEL (Mus musculus; developmental, duration: 21 days, F, Developmental: Decreased locomotion, muscle strength, and motor coordination in adult offspring): 0.3 mg/kg-day | NOAEL (Mus musculus; reproduction developmental, duration: 5 days, F, ICR, […] increased maternal relative liver weight): 50 mg/kg-day | NOAEL (Mus musculus; reproduction developmental, duration: 13 days, F, CD1, Endocrine: No alterations in serum T3 or T4 levels + Hepatic: 21% increase in absolute liver weight at ?3 mg/kg/day): 6 mg/kg-day | LOAEL (Mus musculus; [2]): 20 mg/kg-day | NOAEL (Mus musculus; [2]): 15 mg/kg-day | NOAEL (Mus musculus; reproduction developmental, duration: 17 days, F, CD1, Increase in absolute and relative liver weight and decreased serum triglycerides at ?5 mg/kg/day): 20 mg/kg-day | NOAEL (Mus musculus; short-term, duration: 14 days, M, CD1, Hepatic: ~70% increased absolute liver weight at ?5 mg/kg/day): 10 mg/kg-day | LOAEL (Mus musculus; [3]): 10 mg/kg-day | NOAEL (Mus musculus; [3]): 5 mg/kg-day | NOAEL (Mus musculus; short-term, duration: 21 days, M, CD1, Hepatic: Increased absolute liver weight at ?5 mg/kg/day): 10 mg/kg-day | LOAEL (Mus musculus; [4]): 0.00166 mg/kg-day | NOAEL (Mus musculus; [4]): 0.000166 mg/kg-day | LOAEL (Mus musculus; [5]): 0.0833 mg/kg-day | NOAEL (Mus musculus; [5]): 0.0083 mg/kg-day and 0.0167 mg/kg-day | LOAEL (Rattus norvegicus; acute, duration: 1 days, F, Sprague-Dawley, Endocrine: Transient decrease in serum TT4 (24, 38, and 53% after 2, 6, and 24 hours, respectively)): 15 mg/kg-day | NOAEL (Rattus norvegicus; acute, duration: 1 days, M, Sprague-Dawley): 10.3 mg/kg-day | NOAEL (Rattus norvegicus; chronic, duration: 14 weeks, F, Sprague-Dawley, Immunotoxicological: No histological alterations + Neurological: No histological alterations): 1.56 mg/kg-day | LOAEL (Rattus norvegicus; [6]): 1.33 mg/kg-day | NOAEL (Rattus norvegicus; [6]): 0.34 mg/kg-day | NOAEL (Rattus norvegicus; chronic, duration: 14 weeks, M, Sprague-Dawley, Hepatic: Increased absolute and relative liver weight / increased serum ALT / hepatocyte hypertrophy and vacuolation at 1.33/1.55 mg/kg/…): 1.33 mg/kg-day | LOAEL (Rattus norvegicus; [7]): 1.04 mg/kg-day | NOAEL (Rattus norvegicus; [7]): 0.25 mg/kg-day | NOAEL (Rattus norvegicus; chronic, duration: 104 weeks, M/F, Sprague-Dawley, Immunotoxicological: No histological alterations + Neurological: No histological alterations + Reproductive: No histological alterations): 1.04 mg/kg-day | LOAEL (Rattus norvegicus; [8]): 1.04 mg/kg-day | NOAEL (Rattus norvegicus; [8]): 0.25 mg/kg-day | LOAEL (Rattus norvegicus; chronic, duration: 91 days, M, Sprague-Dawley, Endocrine: 42% decrease in total T4 levels): 0.27 mg/kg-day | LOAEL (Rattus norvegicus; developmental, duration: 2 days, F, Sprague-Dawley, Developmental: Decreased neonatal survival (82% of controls on PND 1)): 25 mg/kg-day | LOAEL (Rattus norvegicus; developmental, duration: 2 days, F, Sprague-Dawley, Developmental: Increased neonatal mortality): 25 mg/kg-day | LOAEL (Rattus norvegicus; developmental, duration: 4 days, Sprague-Dawley, Body Weight: Weight loss during treatment when treated on GDs 2-5 (22%) or 6-9 (17%) + Developmental: Decreased neonatal survival (90% …): 25 mg/kg-day | LOAEL (Rattus norvegicus; developmental, duration: 19 days, F, Sprague-Dawley, Developmental: Increased incidences of cleft palate): 10 mg/kg-day | LOAEL (Rattus norvegicus; [9]): 2 mg/kg-day | NOAEL (Rattus norvegicus; [9]): 1 mg/kg-day | NOAEL (Rattus norvegicus; developmental, duration: 21 days, F, Sprague-Dawley): 1 mg/kg-day | LOAEL (Rattus norvegicus; developmental, duration: 21 days, F, Sprague-Dawley, Developmental: 2.1-fold increased fetal thyroid cell proliferation on GD 20): 1 mg/kg-day | LOAEL (Rattus norvegicus; [10]): 1 mg/kg-day | NOAEL (Rattus norvegicus; [10]): 0.3 mg/kg-day | LOAEL (Rattus norvegicus; developmental, duration: 67 days, F, Sprague-Dawley, >10% decrease in mean pup weight per litter on PND 5 at ?0.4 mg/kg/day / ~50% decrease mean pup survival per litter on PND 5 at ?1.6 mg/kg/…): 1.6 mg/kg-day | LOAEL (Rattus norvegicus; developmental, duration: 67 days, F, Sprague-Dawley, Developmental: >10% decrease in mean pup weight per litter on PND 5 at ?0.4 mg/kg/day / ~50% decrease mean pup survival per litter on PND 5…): 0.4 mg/kg-day | NOAEL (Rattus norvegicus; developmental, duration: 84 days, M/F, Sprague-Dawley, Developmental: Delayed eye opening and transient decrease in F2 pup body weight (13%) on LDs 7-14 at ?0.4 mg/kg/day / decreased pup …): 0.1 mg/kg-day | LOAEL (Rattus norvegicus; developmental, duration: 90 days, F, Sprague-Dawley, Increased pup mortality during PNDs 1-4): 1.6 mg/kg-day | LOAEL (Rattus norvegicus; developmental, duration: 91 days, F, Sprague-Dawley, Developmental: 19-36% reduced serum T4 levels in pups on PNDs 21-35 after gestationand/or postnatal-only exposure): 3.2 mg/kg-day | NOAEL (Rattus norvegicus; reproduction developmental, duration: 19 days, F, Sprague-Dawley): 10 mg/kg-day | LOAEL (Rattus norvegicus; [11]): 2 mg/kg-day | NOAEL (Rattus norvegicus; [11]): 1 mg/kg-day | LOAEL (Rattus norvegicus; reproduction developmental, duration: 19 days, F, Sprague-Dawley, Endocrine: Reduced total and free T4 and T3): 1 mg/kg-day | LOAEL (Rattus norvegicus; [12]): 2 mg/kg-day | NOAEL (Rattus norvegicus; [12]): 1.6 mg/kg-day | LOAEL (Rattus norvegicus; [13]): 3.2 mg/kg-day | NOAEL (Rattus norvegicus; [13]): 1.6 mg/kg-day | NOAEL (Rattus norvegicus; reproduction developmental, duration: 84 days, M/F, Sprague-Dawley, Reproductive: No alterations in mating and fertility parameters): 3.2 mg/kg-day | NOAEL (Rattus norvegicus; short-term, duration: 4 weeks, F, Sprague-Dawley, Immunotoxicological: No histological alterations + Neurological: No histological alterations): 1.77 mg/kg-day | NOAEL (Rattus norvegicus; short-term, duration: 4 weeks, M, Sprague-Dawley, Reproductive: No histological alterations): 1.51 mg/kg-day | NOAEL (Rattus norvegicus; short-term, duration: 7 days, M, Sprague-Dawley, Hepatic: Decreased serum cholesterol (38%) and triglyceride (55%) levels at 8.17 mg/kg/day): 8.17 mg/kg-day | NOAEL (Rattus norvegicus; short-term, duration: 7 days, M, Sprague-Dawley, Hepatic: Hepatocellular hypertrophy, increased liver weight, decreased serum cholesterol at ?1.79 mg/kg/day): 8.96 mg/kg-day | NOAEL (Rattus norvegicus; short-term, duration: 7 days, M, Wistar, Hepatic: 40% increase in absolute liver weight): 15 mg/kg-day | LOAEL (Rattus norvegicus; [14]): 7.01 mg/kg-day | NOAEL (Rattus norvegicus; [14]): 3.47 mg/kg-day | LOAEL (Rattus norvegicus; [15]): 1.23 mg/kg-day | NOAEL (Rattus norvegicus; [15]): 0.14 mg/kg-day | NOAEL (Rattus norvegicus; short-term, duration: 28 days, M, Sprague-Dawley, Hepatic: Hepatocellular hypertrophy and decreased serum cholesterol levels at ?1.54 mg/kg/day): 7.34 mg/kg-day | NOAEL (Rattus norvegicus; short-term, duration: 28 days, M, Sprague-Dawley, Hepatic: Increased relative liver weight / hepatocellular hypertrophy in males at 5.89 mg/kg/day): 5.89 mg/kg-day | NOAEL (Rattus norvegicus; subchronic, duration: 67 days, F, Sprague-Dawley, Hepatic: 16% reduction in serum total cholesterol on PND 5 at ?0.4 mg/kg/day / increased liver weight in dams at ?0.8 mg/kg/day + …): 2 mg/kg-day
